Experimental data: patent publication US8444953B2, “Symmetric and asymmetric halogen-containing metallocarboranylporphyrins and uses thereof” (Brookhaven Science Associates, LLC, priority 2007, dated 2013)
Marks after values point to notes of the source that are not given here.

Experiments:
[1] = Weight changes and hematologic parameters that indicate toxicity; format: in vivo, mice; conditions: for % Weight change / Granulocytes / Lymphocytes / Platelets: 220 mg/kg (43 mg B/kg), median (range)
[2] = system: BALB/c mice bearing subcutaneously implanted EMT-6 mammary carcinomas; experiment: Biodistribution of porphyrin XV in mice bearing EMT-6 carcinomas (boron analyses of tissues); format: in vivo; conditions: 220 mg/kg (43 mg B/kg), 6 i.p. injections over 2 days, median (range), n = 5
Procedure: Porphyrin compound (XV) was emulsified in 9% Cremophor EL and 18% propylene glycol in saline.
To prepare a solution of ˜3.7 mg/mL porphyrin in 9% Cremophor EL (CRM) and 18% propylene glycol (PRG), the porphyrin was dissolved in tetrahydrofuran (THF) (1.5% of the total volume) and then heated to 40° C. for 15 min. CRM (9% of total volume) was then added and the mixture was heated to 60° C., for 2 hours, which removed most of the THF. After cooling to room temperature, PRG (18% of total volume) was added, followed by slow dropwise addition of saline (71.5% of total volume) with rapid stirring. The solution was degassed by stirring under vacuum (˜30 mm Hg) for 30-60 min and then filtered (Millipore, 8 μm).
BALB/c mice bearing subcutaneously implanted EMT-6 mammary carcinomas implanted on the dorsal thorax were given a total dose of 220 milligrams porphyrin compound XV per kilogram body weight (43 mg B/kg). At one and two days after the last injection, mice were euthanized, and tumor, blood, brain, and liver were removed for boron analyses. The blood was first analyzed for hematologic parameters that indicate toxicity before it was analyzed for boron.

[3] = mice, 1 day after last injection
[4] = mice, 2 days after last injection

Substance: Copper (II) 5,10,15-tris[3-o-carboranylmethoxyphenyl]-20-[2,6-difluorophenyl]porphyrin [Porphyrin XV]
- median % weight loss (in words) ([1]; mice receiving porphyrin, 220 mg/kg): not significant
- % Weight change [1, 3]: −0.6 (−3.4-3.3) %
- Granulocytes [1, 3]: 52 (49.8-65.1)
- Lymphocytes [1, 3]: 44.3 (31.8-46.5)^b
- Platelets [1, 3]: 374 (158-879)^a
- % Weight change [1, 4]: −0.2 (−3.3-3.8) %
- Granulocytes [1, 4]: 54.0 (52.4-57.8)
- Lymphocytes [1, 4]: 42.6 (38.4-44.1)
- Platelets [1, 4]: 478 (91-661)^b
- toxicity (in words) ([1]; mice, 220 mg/kg, weight and hematologic parameters): quite mild and transient
- Average boron concentration, Blood ([2]; 1 day after last injection): 47 (38-121) μg B/g
- Average boron concentration, Brain ([2]; 1 day after last injection): 1.0 (0.6-1.7) μg B/g
- Average boron concentration, EMT-6 Tumor ([2]; 1 day after last injection): 66 (24-153) μg B/g
- Average boron concentration, Liver ([2]; 1 day after last injection): 300 (245-319) μg B/g
- Average boron concentration, Skin (pinna) ([2]; 1 day after last injection): 5.9 (4.9-9.9) μg B/g
- Average boron concentration, Blood ([2]; 2 days after last injection): 0.4 (0.3-4.5) μg B/g
- Average boron concentration, Brain ([2]; 2 days after last injection): 0.1 (0-0.2) μg B/g
- Average boron concentration, EMT-6 Tumor ([2]; 2 days after last injection): 88 (44-115) μg B/g
- Average boron concentration, Liver ([2]; 2 days after last injection): 375 (364-419) μg B/g
- Average boron concentration, Skin (pinna) ([2]; 2 days after last injection): 6.6 (3.6-8.1) μg B/g
